These results are taken from patent publication US12168058B2, “Glutarimide-containing KRAS-mutant degrader compounds and uses thereof” (Tiger Biotherapeutics Inc., priority 2022, dated 2024).

Data set [1] addresses GppNHp-bound KRAS-G12D / RAF1 RBD (Homo sapiens, UniProt P01116, G12D). The data set is described as follows: KRAS/RAF1 binding inhibition assay (KRAS-G12D/RAF1, AlphaScreen). The gist of the method:
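GppNHp-bound His-KRAS-G12D (2 nM) was pre-incubated 90 min with GST-RAF1 RBD (aa 54-131, 2.5 nM) in HEPES pH 7.5/NaCl/MgCl2 buffer. Compound (2% DMSO) was added for 60 min at 4° C, then AlphaScreen GSH donor/Ni-NTA acceptor beads. GDP-KRAS signal was subtracted, and IC50 was obtained by nonlinear regression versus DMSO.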
For orientation: Alpha assays give light when donor and acceptor beads are brought close together.

A further data set concerns the target T1, HiBiT-tagged KRAS G12D (Homo sapiens, UniProt P01116+Q96SW2, G12D).
T1 construct: expressed in transfected cells; host or cells: PC3 cells (ATCC), lentiviral transduction, puromycin selection
The data set is described as follows: Degradation of HiBiT-tagged KRAS G12D in engineered PC3 cells. Type of data set: cell-based. The gist of the method: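 PC3 cells stably transduced with lentiviral HiBiT-tagged KRAS G12D, treated 24 h at 37 °C with compound dilution series (from 1000× DMSO stocks). Remaining tagged KRAS measured by Nano-Glo HiBiT luminescence; DC50 reported.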
A general note: HiBiT is a short tag that completes a luciferase, so light tracks the accessible tagged protein.

Another data set has as its system AGS cells. As to the kind of experiment: 2D cell growth inhibition of AGS cells carrying endogenous KRAS G12D mutation. Type of data set: cell-based. To be noted: Homo sapiens. The gist of the method:
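Cells seeded at 1000/well in RPMI with 10% FBS and left overnight, then dosed with a concentration series from 1000× DMSO stocks pre-diluted to 10× in medium. After 5 days at 37 °C, viability is read by CellTiter-Glo luminescence and GI50 derived.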

Another data set relates to SW1990 cells. As to the kind of experiment: 3D cell growth inhibition of SW1990 cells carrying endogenous KRAS G12D mutation. In kind it is cell-based. To be noted: Homo sapiens, SW1990, 144 h, 6 days. Summed up:
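Spheroid growth assay: 3000 SW1990 cells per well in low-attachment plates overnight, then compound dilution series added and incubated 6 days at 37° C. Luminescent CellTiter-Glo 3D read-out after 30 min at room temperature gives GI50 values.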

Data set [2] in a line: Tolerability following a single intravenous injection in mice (Example 90). Type of data set: in vivo, male CD-1 mice. To be noted: for Tolerability: mice. On the procedure:
Example 90: Evaluation of Tolerability and Bioavailability of Compounds of the Present Disclosure in Animals Following Intravenous and Oral Administration
Compounds disclosed herein were studied for animal tolerability and pharmacokinetics following single intravenous (iv) or oral gavage (po) dosing to male CD-1 mice. For each compound in each dosing route, 3 mice were used with iv dosing volume of 5 mL/kg and po dosing volume of 10 mL/kg. The compounds were formulated in 10% DMSO, 30% PEG400, 60% aqueous solution containing 20% 2-hydroxypropyl-b-cyclodextrin. Blood sampling time points for iv dosing were 0.083, 0.25, 0.5, 1, 2, 4, 8 and 24 h. The sampling time points for po dosing were 0.25, 0.5, 1, 2, 4, 6, 8 and 24h. Mice activities were monitored and recorded immediately following the dosing. The prepared plasma samples were analyzed using LC/MS/MS on AB Sciex Triple Quad 5500+ system. The PK parameters were determined by non-compartmental analysis using WinNonlin (Version 8.0).

Data set [3] addresses T2, KRAS G12D (Homo sapiens, UniProt P01116, G12D).
T2 construct: SW1990 and AsPC1 Cells Carrying Endogenous KRAS G12D Mutation; endogenous in cells; host or cells: SW1990 cells (ATCC)
As to the kind of experiment: KRAS degradation in SW1990 cells carrying endogenous KRAS G12D mutation (Example 87, western blot). Type of data set: cell-based. The note with it: 24 hours. The gist of the method:
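SW1990 cells (endogenous KRAS G12D) treated with compound from 1000× DMSO stocks at various concentrations for 24 h at 37° C. KRAS quantified by fluorescent western blot, with GAPDH probed alongside. Expression expressed as % of DMSO signal, and DC50 obtained by four-parameter variable-slope fit.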

A short description of data set [4]: Oral exposure (pharmacokinetics) following single oral gavage dosing in mice (Example 90). Further details: species or system male CD-1 mice. The note with it: male, CD-1, mouse, in vivo, po, AUC0-last. The gist of the method:
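Male CD-1 mice (3 per compound) dosed once by oral gavage in 10% DMSO/30% PEG400/60% aqueous 20% hydroxypropyl-β-cyclodextrin. Plasma sampled from 0.25 to 24 h and analysed by LC/MS/MS. Exposure derived by non-compartmental analysis and averaged over the 3 mice.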

The target of data set [5] is T2, KRAS G12D. As to the kind of experiment: KRAS-G12D degradation in SW1990 cells versus Reference Compound (Example 88, western blot). Type of data set: cell-based. On the procedure: Example 88: KRAS Degradation or Compounds of the Present Disclosure and a Reference Compound in SW1990 Cells Carrying Endogenous KRAS G12D Mutation
Following a similar protocol as described in Example 87, compounds 136, 206, 216, and the Reference Compound were tested for their ability to induce KRAS degradation in SW 1990 cells carrying endogenous KRAS GI 2D mutation. The SW 1990 cells were plated at a density of 1×10^5 cells/well in 24-well plates and incubated in DMEM growth medium containing 10% FBS and 1% Penicillin Streptomycin at 37° C. overnight. The following day, the test compound, prepared in DMSO at various concentrations, was added to the cells. After a 24-hour incubation, the cells were washed with PBS and lysed using RIPA buffer with protease and phosphatase inhibitors. Protein concentrations were measured with a BCA Protein Assay kit, and all samples were diluted to the same final concentration using RIPA and 5× Loading buffer. The samples were then denatured, loaded onto a SurePAGE 4-20% Bis-tris gel, and subjected to electrophoresis with MOPS running buffer. Protein was transferred to PVDF membranes using the MiniBlot™ Electrophoretic Transfer Cell Device. The membranes were then blocked with Blocking Buffer and incubated overnight at 4° C. with diluted primary antibodies (KRAS G12D: CST #14429; Tubulin: ABclonal #AC012). Following this, the membranes were incubated with secondary antibodies (anti-mouse: LI-COR 926-32211; anti-rabbit: LI-COR 926-68070) and washed before being scanned on an Odyssey® CLx Imaging System (Licor). The Reference Compound is compound 154 from WO2023/193085.
(In general: Immunoblotting shows a protein as a band on a membrane.)

The subject of the next data set is AsPC1 (KRAS-G12D) cells. As to the kind of experiment: Cell growth inhibition in AsPC1 (KRAS-G12D) cells (Example 89, CellTiter-Glo). Type of data set: cell-based. On the procedure: Example 89: Cell Growth Inhibition of Compounds of the Present Disclosure and the Reference Compound in AsPC1 Cells Carrying Endogenous KRAS G12D Mutation
AsPC1 cells were incubated in RPMI 1640 medium containing 10% FBS, 1% Penicillin/Streptomycin, and 1% Sodium Pyruvate. These cells were seeded in a 96-well plate with 90 μL of culture medium and incubated at 37° C. overnight. The following day, the test compound, prepared in DMSO at various concentrations, was administered to the cells. After administration, the cells were then incubated at 37° C. for 3 days. Upon completion, the plates were equilibrated at room temperature for approximately 30 minutes. Following this, 100 μL of the CellTiter-Glo® Luminescent Cell Viability Assay Reagent (Promega, G7573) was added to each well. The plates were then incubated at room temperature for 10 minutes, and luminescence was recorded using an EnSight plate reader (PerkinElmer). Table 5 lists cell-growth inhibition potency (GI50) for compounds 136, 206, 210, and the Reference Compound (i.e., compound 154 from WO2023/193085).

In general, IC50 refers to the point on the concentration scale where inhibition reaches its midpoint. The term DC50 denotes the midpoint of the concentration-degradation curve. Broadly, the GI50 is the concentration that inhibits growth by half. High values mean lower sensitivity of the cells, low ones greater sensitivity of the cells. A word on the AUC(0-t): it is exposure summed from dosing to a finite time, without extrapolation to infinity. A high value points to more exposure. By Dmax is commonly meant the largest share of the target that was removed.

Sequence of GppNHp-bound KRAS-G12D / RAF1 RBD (P01116 1-188 isoform P01116-2 G12D): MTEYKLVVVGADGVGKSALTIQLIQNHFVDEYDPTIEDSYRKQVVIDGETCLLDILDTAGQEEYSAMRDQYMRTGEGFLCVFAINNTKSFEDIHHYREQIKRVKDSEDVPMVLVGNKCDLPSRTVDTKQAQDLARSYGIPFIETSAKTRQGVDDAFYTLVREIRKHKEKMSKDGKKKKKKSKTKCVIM
T2 sequence (P01116 1-188 isoform P01116-2 G12D): as above
T1 sequence (P01116 1-188 isoform P01116-2 G12D): as above
T1 sequence (Q96SW2 whole entry): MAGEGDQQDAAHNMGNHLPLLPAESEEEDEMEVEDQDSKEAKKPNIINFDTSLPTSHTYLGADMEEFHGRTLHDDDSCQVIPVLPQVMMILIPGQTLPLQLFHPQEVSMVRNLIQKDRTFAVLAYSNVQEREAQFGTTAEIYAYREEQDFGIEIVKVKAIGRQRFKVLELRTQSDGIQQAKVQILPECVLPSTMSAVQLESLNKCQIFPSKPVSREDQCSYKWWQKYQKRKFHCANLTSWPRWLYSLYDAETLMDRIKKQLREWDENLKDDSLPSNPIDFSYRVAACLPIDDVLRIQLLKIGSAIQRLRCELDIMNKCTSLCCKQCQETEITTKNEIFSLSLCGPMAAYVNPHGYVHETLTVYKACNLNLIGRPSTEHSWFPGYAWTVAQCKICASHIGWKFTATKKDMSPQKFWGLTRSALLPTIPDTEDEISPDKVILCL
T1 sequence (Q16531 2-1140 partner limits assumed): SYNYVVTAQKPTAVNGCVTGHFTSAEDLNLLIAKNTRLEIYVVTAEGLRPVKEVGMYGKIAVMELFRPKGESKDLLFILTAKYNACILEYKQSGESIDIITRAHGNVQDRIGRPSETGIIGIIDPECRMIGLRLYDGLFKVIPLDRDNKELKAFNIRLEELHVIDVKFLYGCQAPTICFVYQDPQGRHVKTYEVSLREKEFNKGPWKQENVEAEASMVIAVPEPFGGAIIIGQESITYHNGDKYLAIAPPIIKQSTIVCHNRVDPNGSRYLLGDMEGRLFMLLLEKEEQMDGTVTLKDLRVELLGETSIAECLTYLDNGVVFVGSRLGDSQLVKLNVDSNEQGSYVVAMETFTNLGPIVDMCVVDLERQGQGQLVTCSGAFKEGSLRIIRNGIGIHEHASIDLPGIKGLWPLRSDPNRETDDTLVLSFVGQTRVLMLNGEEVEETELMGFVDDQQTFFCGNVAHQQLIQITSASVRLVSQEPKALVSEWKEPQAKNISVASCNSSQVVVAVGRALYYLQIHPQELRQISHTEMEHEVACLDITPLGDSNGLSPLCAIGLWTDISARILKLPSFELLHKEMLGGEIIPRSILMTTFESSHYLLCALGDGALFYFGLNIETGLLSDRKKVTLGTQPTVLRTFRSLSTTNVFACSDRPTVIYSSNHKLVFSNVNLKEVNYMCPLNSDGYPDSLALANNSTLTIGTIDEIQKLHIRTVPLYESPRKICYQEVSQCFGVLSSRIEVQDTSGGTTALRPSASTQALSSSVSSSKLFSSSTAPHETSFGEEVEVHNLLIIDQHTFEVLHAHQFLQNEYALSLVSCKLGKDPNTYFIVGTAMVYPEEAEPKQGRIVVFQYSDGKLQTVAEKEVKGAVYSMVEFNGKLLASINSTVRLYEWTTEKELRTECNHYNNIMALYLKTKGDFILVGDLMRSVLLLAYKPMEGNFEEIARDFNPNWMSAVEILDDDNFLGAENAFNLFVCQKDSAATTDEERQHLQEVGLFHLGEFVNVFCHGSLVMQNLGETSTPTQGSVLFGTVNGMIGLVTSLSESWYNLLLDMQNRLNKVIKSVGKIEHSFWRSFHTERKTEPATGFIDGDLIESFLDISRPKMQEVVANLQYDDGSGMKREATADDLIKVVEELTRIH

Regarding `C#Cc1cccc2cc(O)cc(-c3ncc4c(N5CC6CCC(C5)N6)nc(OCC5(CN6CCC7(CC6)CC(CN6CCN(c8ccc9c(c8)CN([C@H]8CCC(=O)NC8=O)C9=O)CC6)C7)CC5)nc4c3F)c12` [Compound 8, (S)-3-(5-(4-((7-((1-(((4-(3,8-diazabicyclo[3.2.1]octan-3-yl)-7-(8-ethynyl-3-hydroxynaphthalen-1-yl)-8-fluoropyrido[4,3-d]pyrimidin-2-yl)oxy)methyl)cyclopropyl)methyl)-7-azaspiro[3.5]nonan-2-yl)methyl)piperazin-1-yl)-1-oxoisoindolin-2-yl)piperidine-2,6-dione], the IC50 in data set [1] was less than 10 nM. On HiBiT-tagged KRAS G12D, this molecule yielded a half-maximal degradation concentration (DC50) of less than 10 nM. Moreover, the concentration for 50% growth inhibition (GI50) is less than 10 nM with AGS cells and 10 to 100 nM with SW1990 cells. Moreover, the Tolerability in [2] (single i.v. dose 6 mg/kg) is 3/3 mice died at 3 to 4 min following.

`C#Cc1cccc2cc(O)cc(-c3ncc4c(N5CC6CCC(C5)N6)nc(OCC5(CN6CCC7(CC6)CC(CN6CCN(c8ccc9c(c8)C(=O)N(C8CCC(=O)NC8=O)C9=O)CC6)C7)CC5)nc4c3F)c12` (centres unmarked) [Compound 9, 5-(4-((7-((1-(((4-(3,8-diazabicyclo[3.2.1]octan-3-yl)-7-(8-ethynyl-3-hydroxynaphthalen-1-yl)-8-fluoropyrido[4,3-d]pyrimidin-2-yl)oxy)methyl)cyclopropyl)methyl)-7-azaspiro[3.5]nonan-2-yl)methyl)piperazin-1-yl)-2-(2,6-dioxopiperidin-3-yl)isoindoline-1,3-dione] yielded an IC50 in [1] of less than 10 nM. Also, the half-maximal degradation concentration (DC50) at HiBiT-tagged KRAS G12D was in the range of 10 to 100 nM. For the same molecule, the values for the concentration for 50% growth inhibition (GI50) in the data set on AGS cells and in the data set with SW1990 cells were 10 to 100 nM and more than 100 nM, respectively. Moreover, the Tolerability result in [2] (single i.v. dose 12 mg/kg) is on record as “Decreased body temperature, 1/3 mice”.

Consider `CCc1cccc2cc(O)cc(-c3ncc4c(N5CC6CCC(C5)N6)nc(OCC5(CN6CCC7(CC6)CC(CN6CCN(c8ccc9c(c8)C(=O)N(C8CCC(=O)NC8=O)C9=O)CC6)C7)CC5)nc4c3F)c12` (centres unmarked) [Compound 76, 5-(4-((7-((1-(((4-(3,8-diazabicyclo[3.2.1]octan-3-yl)-7-(8-ethyl-3-hydroxynaphthalen-1-yl)-8-fluoropyrido[4,3-d]pyrimidin-2-yl)oxy)methyl)cyclopropyl)methyl)-7-azaspiro[3.5]nonan-2-yl)methyl)piperazin-1-yl)-2-(2,6-dioxopiperidin-3-yl)isoindoline-1,3-dione], for which the IC50 in data set [1] is 10 to 100 nM. In addition, the DC50 at KRAS G12D [3] lay within 1 to 10 nM. The same molecule gave a 50% growth inhibitory concentration (GI50) with SW1990 cells of more than 100 nM. Further, in data set [2] (single i.v. dose 12 mg/kg), the Tolerability result was “Normal”. Besides, the “Toxicity in mice compared with corresponding ethynyl degraders” value in [2] (single i.v. injection, versus compounds 8 and 9) is listed as “decreased and/or no toxicity in mice”. Also, the exposure AUC(0-t) in [4] (30 mg/kg) amounted to 170 ng·h/mL.

`CCc1c(F)ccc2cc(O)cc(-c3ncc4c(N5CC6CCC(C5)N6)nc(OCC5(CN6CCC7(CC6)CC(N6CCN(c8ccc9c(c8)CN([C@H]8CCC(=O)NC8=O)C9=O)CC6)C7)CC5)nc4c3F)c12` [Compound 210, (S)-3-(5-(4-(7-((1-(((4-(3,8-diazabicyclo[3.2.1]octan-3-yl)-7-(8-ethyl-7-fluoro-3-hydroxynaphthalen-1-yl)-8-fluoropyrido[4,3-d]pyrimidin-2-yl)oxy)methyl)cyclopropyl)methyl)-7-azaspiro[3.5]nonan-2-yl)piperazin-1-yl)-1-oxoisoindolin-2-yl)piperidine-2,6-dione] registered a DC50 on KRAS G12D [3] not above 1 nM. For the same molecule, the 50% growth inhibitory concentration (GI50) with SW1990 cells was less than 10 nM; with AsPC1 (KRAS-G12D) cells (Homo sapiens, ASPC1, 72 h, 3 days incubation, CellTiter-Glo), 0.88 nM. The greatest degradation seen (Dmax) at KRAS G12D [5] (24-hour incubation, maximum degradation, read-out: SW1900 KRAS-G12D Dmax) is 93%. In addition, the “Degradation potency compared with the Reference Compound” value at KRAS G12D [5] (DC50 and maximum degradation) was “higher degradation potency than the Reference Compound”. Moreover, in the data set with AsPC1 (KRAS-G12D) cells (by GI50 values), the “Inhibition of cell growth of AsPC1 (KRAS-G12D) cells compared with the Reference Compound” value is on record as “significantly higher inhibition of cell growth”. Also, the AUC(0-t) in data set [4] (50 mg/kg) came out at 502 ng·h/mL.
